Experimental data from publication PMC3183312 (European journal of medicinal chemistry, 2011).

Key:
[1] = test system: HIV-1NL4-3; experiment: HIV-1 infectivity assay, single cycle infection, Luc reporter in TZM-bl cells; assay type: cell-based; conditions: HIV-1NL4-3 in TZM-bl cells, discussion of Table 2
[2] = Chemical stability analysis in acidic conditions with HPLC monitoring; assay type: physicochemical; conditions: 1% HCl/MeOH/rt; peak area percentage by HPLC; preliminary

SMILES | Purity (area %) Reaction Time = 1 min [2] [%] | anti-HIV activity (in words) [1]
CCc1cc(=O)c2ccc(OC3CCOC3=O)c(COC(=O)[C@@]34CCC(C)(C(=O)O3)C4(C)C)c2o1 (stereo partly drawn) [Compound 16, 4′-((−)-Camphanoyloxymethyl)-2-ethyl-7-(2-oxo-tetrahydrofuran-3-yloxy)-4H-chromen-4-one] | – | lost all activity
CCc1cc(=O)c2ccc(OCc3cc(OC)cc(OC)c3)c(COC(=O)C34CCC(C)(C(=O)O3)C4(C)C)c2o1 (stereo not drawn) [Compound 25, 4′-((−)-Camphanoyloxymethyl)-7-(3,5-dimethoxybenzyloxy)-2-ethyl-4H-chromen-4-one] | – | very weak anti-HIV activity
CCc1cc(=O)c2ccc(OCc3cc(OC)c(OC)cc3[N+](=O)[O-])c(COC(=O)[C@@]34CCC(C)(C(=O)O3)C4(C)C)c2o1 [Compound 28, 4′-((−)-Camphanoyloxymethyl)-7-(4,5-dimethoxy-2-nitrobenzyloxy)-2-ethyl-4H-chromen-4-one] | – | lost all activity
Cc1cc(=O)oc2c(COC(=O)[C@@]34CC[C@@](C)(C(=O)O3)C4(C)C)c(SC(C)C)ccc12 [Compound 32, 4′-((−)-Camphanoyloxymethyl)-7-(isopropylthio)-4-methyl-2H-chromen-2-one] | 100 | –
CCc1cc(=O)c2ccc(OCc3cccc(C(F)(F)F)c3)c(COC(=O)[C@@]34CCC(C)(C(=O)O3)C4(C)C)c2o1 [Compound 20, 4′-((−)-Camphanoyloxymethyl)-2-ethyl-7-(3-(trifluoromethyl)benzyloxy)-4H-chromen-4-one] | – | lost all activity

The next lines start with results.

Purity (area %) Reaction Time = 1 min [2] [%] | SMILES | anti-HIV activity (in words) [1]
100 | CCc1cc(=O)c2ccc3c(c2o1)[C@@H](OC(=O)C12CCC(C)(C(=O)O1)C2(C)C)[C@@H](OC(=O)C12CCC(C)(C(=O)O1)C2(C)C)C(C)(C)O3 (stereo partly drawn) [Compound 4, 2-ethyl DCP] | –
100 | Cc1cc(=O)oc2c(COC(=O)[C@@]34CC[C@@](C)(C(=O)O3)C4(C)C)c(OC(C)C)ccc12 [Compound 7] | –
100 | Cc1cc(=O)oc2c3c(ccc12)OC(C)(C)[C@H](OC(=O)[C@@]12CC[C@@](C)(C(=O)O1)C2(C)C)[C@@H]3OC(=O)[C@@]12CC[C@@](C)(C(=O)O1)C2(C)C [Compound 2, 4-methyl-DCK] | –
100 | CCc1cc(=O)c2ccc(OC(C)C)c(COC(=O)C34CCC(C)(C(=O)O3)C4(C)C)c2o1 (stereo not drawn) [Compound 12, 4′-((−)-Camphanoyloxymethyl)-2-ethyl-7-isopropoxy-4H-chromen-4-one] | –
